This note sets out measurements from paper PMC6155811, “Effect of Phenolic Compounds from Elderflowers on Glucose- and Fatty Acid Uptake in Human Myotubes and HepG2-Cells” (Molecules : A Journal of Synthetic Chemistry and Natural …, 2017).

In experiment [1] the test system is human skeletal muscle cells. Nature of the experiment: Glucose uptake in human myotubes ([14C(U)]-glucose). It is filed as cell-based. The conditions noted are these: for increase in glucose uptake: 10 µM, 2 days, vs 0.1% DMSO control, mean ± SEM; for glucose uptake (in words): 10 µM (highest concentration tested). Here is the method:
Figure 2 Effects of elderflower extracts, constituents and metabolites on glucose uptake in human myotubes. Myotubes were treated with (A) 12.5, 25 and 50 µg/mL of different crude extracts; (B,C) 0.1, 1 and 10 µM of elderflower phenolic compounds and metabolites for 2 days. Thereafter, the cells were exposed to [^14C(U)]-glucose (1 μCi/mL, 100 μM) for 4 h as described in the Materials and Methods section. 22-S-hydroxycholesterol (22-SHC) (10 μM) was used as positive control. The figures show [^14C(U)]-glucose uptake given as means ± standard error of the mean (SEM) (n = 3) from separate experiments. * p < 0.05 vs. control (0.1% dimethyl sulfoxide (DMSO)).
(§1) Satellite cells were isolated from the Musculus obliquus internus abdominis of four healthy donors, age 34.8 (±19) years, body mass index 22.9 (±2.7) kg/m^2, fasting glucose 4.9 (±0.6) mM, insulin, plasma lipids and blood pressure within normal range and no family history of diabetes. The muscle biopsies were obtained with informed consent and approval by the National Committee for Research Ethics (Oslo, Norway). The cells were cultured on 96-well CellBIND microplates DMEM-Glutamax (5.5 mM glucose), 2% fetal bovine serum, 2% Ultroser G, penicillin (100 units/mL), streptomycin (100 μg/mL) and amphotericin B (1.25 μg/mL) for proliferation. At 70%–80% confluence, the growth medium was replaced by DMEM-Glutamax (5.5 mM glucose) supplemented with 2% fetal bovine serum, penicillin (100 units/mL), streptomycin (100 μg/mL), amphotericin B (1.25 μg/mL) and insulin (25 pM), to induce differentiation. The cells were cultured in humidified 5% CO2 atmosphere at 37 °C, and the medium was changed every 2–3 days. Experiments were performed after 7 days of differentiation. 22-S-hydroxycholesterol (22-SHC) (10 µM) was used as positive control in the glucose uptake assay. The positive control used in the oleic acid assay is the synthetic liver X receptor (LXR) agonist T0901317 (10 µm).
(§2) Cells were exposed to test samples solved in 0.1% DMSO that were added directly to the medium for 2 days for myotubes and 24 h for HepG2 cells. Thereafter, cells were exposed to [^14C(U)]-glucose (1 μCi/mL, 100 μM) or [^14C]-oleic acid (37 kBq, 100 µM) for 4 h. A 96-well UniFilter-96 GF7B microplate (Perkin Elmer, Waltham, MA, USA) was mounted on top of the CellBIND plate (Corning Life-Sciences (Schiphol-Rijk, The Netherlands) and CO2 production was measured. After incubation the cells were washed twice with ice-cold phosphate buffered saline (PBS), lysed in 0.1 M NaOH, and radioactivity measured by liquid scintillation counting. The protein content of each sample was determined and glucose uptake was calculated using protein levels for standardization.

Experiment [2] deals with human skeletal muscle cells. Nature of the experiment: Oleic acid uptake in human myotubes ([14C]-oleic acid). Type of experiment: cell-based. The settings on record: for increase in oleic acid uptake: 10 µM (highest concentration tested), 2 days, vs 0.1% DMSO control; for oleic acid uptake (in words): 10 µM. Here is the method: Figure 3 Effects of elderflower extracts, constituents and metabolites on oleic acid uptake in human myotubes. Myotubes were treated with (A) 12.5, 25 and 50 µg/mL of different crude extracts; (B,C) 0.1, 1 and 10 µM of elderflower phenolic compounds and metabolites for 2 days. Thereafter, the cells were exposed to [^14C]-oleic acid (37 kBq, 100 µM) for 4 h as described in Materials and Methods. A synthetic liver X receptor (LXR) agonist T0901317 (10 μM) was used as positive control. The figures show [^14C]-oleic acid uptake given as means ± SEM (n = 3) from separate experiments. * p < 0.05 vs. control (0.1% DMSO).
as §1, §2

For experiment [3], the target named is T1, Porcine pancreatic α-amylase (Sus scrofa, UniProt P00690).
T1 construct: purchased Sigma-Aldrich Chemie GmbH
T1 sequence (P00690 16-511): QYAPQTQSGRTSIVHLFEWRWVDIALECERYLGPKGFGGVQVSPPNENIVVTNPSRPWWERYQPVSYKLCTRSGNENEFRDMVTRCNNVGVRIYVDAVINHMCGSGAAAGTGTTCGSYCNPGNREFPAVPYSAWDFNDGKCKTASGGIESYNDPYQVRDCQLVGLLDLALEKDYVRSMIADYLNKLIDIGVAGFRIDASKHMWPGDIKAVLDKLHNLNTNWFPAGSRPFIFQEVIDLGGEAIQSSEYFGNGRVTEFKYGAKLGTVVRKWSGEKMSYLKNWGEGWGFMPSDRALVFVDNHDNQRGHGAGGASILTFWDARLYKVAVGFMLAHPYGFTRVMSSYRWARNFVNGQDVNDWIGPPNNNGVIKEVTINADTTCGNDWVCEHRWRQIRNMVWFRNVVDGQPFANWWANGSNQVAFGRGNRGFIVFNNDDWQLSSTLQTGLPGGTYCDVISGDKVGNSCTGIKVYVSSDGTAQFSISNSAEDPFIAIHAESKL
Nature of the experiment: α-Amylase inhibitory activity. Type of experiment: biochemical. The conditions noted are these: phenolic compounds and metabolites; IC50 ± SD. Here is the method:
The α-amylase assay was performed as described by Gella, et al.. Porcine pancreatic α-amylase (EC 3.2.1.1) was purchased from Sigma-Aldrich Chemie GmbH.

A further experiment can be described thus: DPPH radical scavenging. The settings on record: IC50 ± SD; for IC50: phenolic compounds and metabolites. Here is the method:
Scavenging activity towards the DPPH radical was carried out as previously described. Test substances were dissolved in DMSO or water. Values were corrected for absorbance of the test substances.

The test system of experiment [4] is HepG2-cells. Nature of the experiment: Glucose uptake in HepG2-cells ([14C(U)]-glucose). Type of experiment: cell-based, human. The settings on record: 24 h, vs 0.1% DMSO control. On the procedure: The human hepatoblastoma cell line HepG2 (HB-8065, ATCC, Manassas, VA, USA) was cultured in DMEM-Glutamax (5.5 mM glucose) supplemented with 10% fetal bovine serum, streptomycin (100 μg/mL) and penicillin (100 units/mL) at 37 °C in 5% CO2.
as §2

The target of experiment [5] is T2, 15-lipoxygenase (15-LO) from soybeans (Glycine max, UniProt P08170).
T2 construct: 15-lipoxygenase (15-LO) from soybeans; purchased Sigma-Aldrich (St. Louis, MO, USA); host or cells: soybeans
T2 sequence (P08170 1-839): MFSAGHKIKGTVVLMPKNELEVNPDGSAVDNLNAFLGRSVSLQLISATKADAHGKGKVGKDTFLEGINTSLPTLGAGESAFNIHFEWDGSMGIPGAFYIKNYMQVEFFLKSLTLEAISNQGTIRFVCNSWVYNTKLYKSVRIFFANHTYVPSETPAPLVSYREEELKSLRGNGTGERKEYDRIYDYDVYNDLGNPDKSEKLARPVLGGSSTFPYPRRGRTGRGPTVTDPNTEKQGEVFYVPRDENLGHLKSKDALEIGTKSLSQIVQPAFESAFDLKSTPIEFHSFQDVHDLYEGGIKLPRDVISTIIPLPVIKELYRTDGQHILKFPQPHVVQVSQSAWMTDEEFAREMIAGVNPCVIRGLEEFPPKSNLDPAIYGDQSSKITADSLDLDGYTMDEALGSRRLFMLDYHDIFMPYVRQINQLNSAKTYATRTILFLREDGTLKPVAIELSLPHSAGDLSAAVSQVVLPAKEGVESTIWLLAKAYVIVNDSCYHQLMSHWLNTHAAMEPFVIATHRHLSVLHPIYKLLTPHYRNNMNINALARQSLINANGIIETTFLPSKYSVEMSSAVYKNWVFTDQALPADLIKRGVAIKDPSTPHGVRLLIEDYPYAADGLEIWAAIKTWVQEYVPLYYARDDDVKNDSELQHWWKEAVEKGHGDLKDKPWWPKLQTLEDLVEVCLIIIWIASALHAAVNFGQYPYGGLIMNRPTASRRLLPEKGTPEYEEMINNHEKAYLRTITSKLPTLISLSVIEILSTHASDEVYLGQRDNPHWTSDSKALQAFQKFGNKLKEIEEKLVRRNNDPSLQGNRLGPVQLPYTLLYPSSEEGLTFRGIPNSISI
Nature of the experiment: Inhibition of 15-lipoxygenase. Type of experiment: biochemical, soybean. The conditions noted are these: phenolic compounds and metabolites; IC50 ± SD; read-out: 15-LO IC50. On the procedure: Test substances were dissolved in DMSO or water, and the assay was carried out as previously described.

Experiment [6] deals with HepG2-cells. Put plainly: Oleic acid uptake in HepG2-cells ([14C]-oleic acid). Type of experiment: cell-based, human. The conditions noted are these: highest concentration tested. On the procedure: Cells were exposed to test samples solved in 0.1% DMSO that were added directly to the medium for 2 days for myotubes and 24 h for HepG2 cells. […] A 96-well UniFilter-96 GF7B microplate (Perkin Elmer, Waltham, MA, USA) was mounted on top of the CellBIND plate (Corning Life-Sciences (Schiphol-Rijk, The Netherlands) and CO2 production was measured. After incubation the cells were washed twice with ice-cold phosphate buffered saline (PBS), lysed in 0.1 M NaOH, and radioactivity measured by liquid scintillation counting. […]

The target in experiment [7] is T3, xanthine oxidase from bovine milk (Bos taurus, UniProt P80457).
T3 construct: xanthine oxidase from bovine milk; purchased Sigma-Aldrich (St. Louis, MO, USA); host or cells: bovine milk
T3 sequence (P80457 whole entry): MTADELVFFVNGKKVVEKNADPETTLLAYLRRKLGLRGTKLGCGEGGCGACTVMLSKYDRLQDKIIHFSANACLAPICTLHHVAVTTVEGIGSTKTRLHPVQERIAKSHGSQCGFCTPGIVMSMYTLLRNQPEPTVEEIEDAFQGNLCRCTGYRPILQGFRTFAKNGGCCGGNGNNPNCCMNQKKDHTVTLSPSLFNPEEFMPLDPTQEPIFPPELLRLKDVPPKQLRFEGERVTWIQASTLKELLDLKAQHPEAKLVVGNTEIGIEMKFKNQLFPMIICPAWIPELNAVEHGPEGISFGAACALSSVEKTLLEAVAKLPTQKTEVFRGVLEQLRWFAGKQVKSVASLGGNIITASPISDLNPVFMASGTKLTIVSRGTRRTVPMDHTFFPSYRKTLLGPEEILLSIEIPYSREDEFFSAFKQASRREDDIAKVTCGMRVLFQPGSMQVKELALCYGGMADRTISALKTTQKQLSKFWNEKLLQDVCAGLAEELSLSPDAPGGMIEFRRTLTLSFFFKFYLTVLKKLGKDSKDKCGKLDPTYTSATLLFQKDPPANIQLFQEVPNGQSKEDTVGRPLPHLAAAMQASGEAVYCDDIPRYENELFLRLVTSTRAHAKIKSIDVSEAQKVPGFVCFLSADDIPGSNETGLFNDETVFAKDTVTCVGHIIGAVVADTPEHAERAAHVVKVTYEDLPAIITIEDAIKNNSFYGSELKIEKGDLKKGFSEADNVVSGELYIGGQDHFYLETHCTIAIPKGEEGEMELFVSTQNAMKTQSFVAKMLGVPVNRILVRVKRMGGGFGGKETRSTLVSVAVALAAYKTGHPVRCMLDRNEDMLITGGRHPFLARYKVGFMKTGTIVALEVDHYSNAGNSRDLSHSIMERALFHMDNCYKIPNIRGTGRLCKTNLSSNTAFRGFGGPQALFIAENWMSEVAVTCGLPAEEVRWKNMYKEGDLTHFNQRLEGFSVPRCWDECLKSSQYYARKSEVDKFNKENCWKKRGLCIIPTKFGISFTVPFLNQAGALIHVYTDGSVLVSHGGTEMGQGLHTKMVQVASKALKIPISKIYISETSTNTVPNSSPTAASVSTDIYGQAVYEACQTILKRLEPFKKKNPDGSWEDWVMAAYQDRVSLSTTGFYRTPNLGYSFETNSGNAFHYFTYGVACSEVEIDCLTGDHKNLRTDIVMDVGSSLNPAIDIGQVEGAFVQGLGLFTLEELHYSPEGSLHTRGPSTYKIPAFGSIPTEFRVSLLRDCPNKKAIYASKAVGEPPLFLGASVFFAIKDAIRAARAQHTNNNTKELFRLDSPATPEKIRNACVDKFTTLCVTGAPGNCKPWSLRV
Nature of the experiment: Inhibition of xanthine oxidase. It is filed as biochemical. The settings on record: for IC50: phenolic compounds and metabolites, IC50 ± SD, read-out: XO IC50; for XO inhibition (in words): up to highest concentration tested (167 µM). On the procedure:
The XO inhibitory activity with hypoxanthine as the substrate was carried out previously described. Test substances were dissolved in DMSO or water.

Experiment [8] has as its target T4, Baker's yeast α-glucosidase (Saccharomyces cerevisiae, UniProt P53341).
T4 construct: purchased Sigma-Aldrich Chemie GmbH (Steinheim, Germany)
Put plainly: biochemical. The settings on record: phenolic compounds and metabolites; IC50 ± SD; read-out: α-Glucosidase IC50. Here is the method: The α-glucosidase inhibitory activity of the extracts was assessed according to the method described by Ranilla, et al.. Baker’s yeast α-glucosidase (EC 3.2.1.20) was purchased from Sigma-Aldrich Chemie GmbH (Steinheim, Germany).

T4 sequence (P53341 whole entry): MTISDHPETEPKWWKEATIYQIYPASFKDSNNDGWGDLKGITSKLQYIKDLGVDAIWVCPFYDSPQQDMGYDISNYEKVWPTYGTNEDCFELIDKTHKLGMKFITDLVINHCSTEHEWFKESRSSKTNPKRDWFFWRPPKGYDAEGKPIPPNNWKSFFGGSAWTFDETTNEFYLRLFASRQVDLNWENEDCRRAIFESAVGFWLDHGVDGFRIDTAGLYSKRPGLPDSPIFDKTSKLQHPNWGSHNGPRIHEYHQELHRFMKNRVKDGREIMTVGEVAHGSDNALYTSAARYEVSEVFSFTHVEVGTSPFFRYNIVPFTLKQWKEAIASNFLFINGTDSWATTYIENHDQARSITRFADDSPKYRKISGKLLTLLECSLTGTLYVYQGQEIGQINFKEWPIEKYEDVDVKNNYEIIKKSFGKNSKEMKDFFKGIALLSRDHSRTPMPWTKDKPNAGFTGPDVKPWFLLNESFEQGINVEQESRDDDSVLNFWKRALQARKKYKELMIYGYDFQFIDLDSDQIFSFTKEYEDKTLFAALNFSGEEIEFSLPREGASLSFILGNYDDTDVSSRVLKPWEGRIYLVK

As for `O=c1c(O)c(-c2ccc(O)cc2)oc2cc(O)cc(O)c12` [Kaempferol], the “increase in glucose uptake” value in experiment [1] is on record as 39.1% ± 5.8%. In addition, the “increase in oleic acid uptake” value in experiment [2] is listed as 25.0% ± 3.0%. Also, the half-maximal inhibitory concentration (IC50) in experiment [3] turned out to be 3.6 ± 1.1 µM; in “DPPH radical scavenging” it was 10.6 ± 3.9 µM; in experiment [5], 93.7 ± 3.7 µM. Besides, the “maximal increase in glucose uptake” value with HepG2-cells [4] is listed as 45.2% ± 2.6%.
For the compound `O=C(/C=C/c1ccc(O)c(O)c1)O[C@@H]1C[C@](O)(C(=O)O)C[C@@H](O)[C@H]1O` [Chlorogenic acid], in the experiment on HepG2-cells [6], the “enhancement of oleic acid uptake” value is given as 25.6% ± 4.6%. Further, the “increase in oleic acid uptake” value in experiment [2] was 17.3% ± 2.5%. Moreover, the IC50 in experiment [3] was determined as 9.1 ± 1.1 µM; in experiment [7] it was 24.2 ± 5.3 µM; in experiment [5], 106 ± 2.3 µM.
Take `O=c1c(O)c(-c2ccc(O)c(O)c2)oc2cc(O)cc(O)c12` [Quercetin]: the “increase in glucose uptake” value in experiment [1] is 37.1% ± 4.6%. Further, the “DPPH IC50” value in “DPPH radical scavenging” (crude extracts) is recorded as 2.8 ± 0.3 µg/mL. Moreover, the IC50 in “DPPH radical scavenging” worked out at 9.3 ± 1.5 µM. Moreover, in the experiment with HepG2-cells [4], the “maximal increase in glucose uptake” value was 41.1% ± 3.2%.
Take `O=C(O)Cc1cccc(O)c1` [3-Hydroxyphenylacetic acid]: the IC50 was 68.9 ± 3.8 µM in [8]; 44.8 ± 5.3 µM in experiment [3]; above 167 µM in [7]; 125 ± 4.8 µM in the experiment “DPPH radical scavenging”; 134 ± 5.8 µM in experiment [5]. In addition, the “glucose uptake (in words)” value in experiment [1] is “small increase”. The “oleic acid uptake (in words)” value in experiment [2] is recorded as “small but significant increase”. In addition, the “XO inhibition (in words)” value in experiment [7] was “inactive”.
For the compound `Cc1ccc(O)c(O)c1` [4-Methylcatechol], the IC50 in experiment [8] is 98.9 ± 3.5 µM; in [3], 94.8 ± 6.8 µM; in experiment [7], above 167 µM; in “DPPH radical scavenging” it was 40.5 ± 3.6 µM; in [5], 129 ± 5.2 µM. The “glucose uptake (in words)” value in [1] is “small increase”. In addition, the “oleic acid uptake (in words)” value in [2] is recorded as “small but significant increase”. In [7], the “XO inhibition (in words)” value is “inactive”.
